Source: patent US12337000B2, “Therapeutic modulators of the reverse mode of ATP synthase” (priority 2017, dated 2025)
“Also recorded” adds a separate entry of the source. Where two headings read alike, the source gives them in different places.

Legend:
[1] = tested on: 59 cancer cell lines (NCI-60); settings: 10 μM, NCI-60 one-dose, NSC: 760347 in [16], cited from earlier work
[2] = tested on: 59 different cancer cell lines (NCI-60); settings: NCI-60 five-dose, from Table 1 of [30]; cited from earlier work
[3] = molecular target: forward mode of ATP synthase (Homo sapiens, UniProt P06576+P25705+P48047); settings: [P4]; cited from earlier work
[4] = molecular target: reverse mode of ATP synthase (Homo sapiens, UniProt P06576+P25705+P48047); settings: [P4]; cited from earlier work
[5] = 1.9 g/kg intraperitoneal, 24.5 to 25° C. ambient temperature [100]; cited from earlier work
[6] = Enantiomeric excess (ee) stability experiments; assay type: physicochemical; settings: FIG. 16
Description: FIG. 16. The enantiomeric excess (ee) of 6a and 6b is […] in presented ee stability experiments. […] This ee instability in biological media is an unexpected result. This finding is componentry to the invention of this disclosure, as are any modifications to the structure of 6a or 6b to slow their ee erosion due to epimerization/racemization. The ee instability is unexpected because it runs contrary to theory. The 2nd order rate constant (kgb) for general-base catalysed racemization can be predicted for 6a and 6b by theory from (and its supplementary information, all incorporated by reference). Joined to the stereogenic carbon of 6a and 6b there is a phenyl group, alkyl and a guanidine group: ΣΔΔG(R1,R2,R3)=[…]=−36.2 kcal/mol. The value for the guanidine group (19.1) is not from but from one of its authors, Dr. Andrew Leach, by personal communication, who sourced it by quantum mechanical calculation with the Gaussian 03 software package. The cross-conjugation correction was not applied in this case because Dr. Leach wrote “I would not expect guanidine to be a conjugating group”. log(kgb)=−0.11*ΣΔΔG(R1,R2,R3)−9.81, ∴Kgb=0.00000148593 M^−1s^−1. This is not particularly fast. Racemization might occur faster for 6a and 6b in cells than predicted by theory because their high lipophibicity concentrates them in biological membranes. […]

[7] = tested on: 59 different cancer cell lines (NCI-60); assay: NCI-60 five-dose in vitro assay; assay type: cell-based; settings: Homo sapiens, read-out: mean GI50 of all 59 cell lines
Description: Results are from the NCI-60 five-dose in vitro assay at the Developmental Therapeutics Program (DTP), at the National Cancer Institute (NCI, Bethesda, MD, USA). […] These graphs are as outputted by the NCI but changed from colour to black and white. On the y-axis of each is the aforementioned “Growth Percent” parameter used by NCI, which is growth relative to the no-compound control, and relative to the time zero number of cells.

[8] = tested on: 59 cancer cell lines (NCI-60); assay: NCI-60 one-dose in vitro assay; assay type: cell-based, human; settings: for inhibition at 10 µM / inhibition at 100 µM: Homo sapiens; for inhibition at 10 µM: 48 hours, read-out: mean cancer growth inhibition, across all 59 cancer cell lines; for inhibition at 10 µM / anti-cancer activity (in words): 10 μM
Description: FIGS. 1, 2, 3, 4, 5, 6, 7, 8 show results from the NCI-60 one-dose in vitro assay at the Developmental Therapeutics Program (DTP), at the National Cancer Institute (NCI, Bethesda, MD, USA). Its protocol is well known to those of the art, and it tests the effect, if any, of a test compound on the growth/survivability of a cancer cell line as compared to the no compound control. […] However, a constant is that there is always representative cell lines from leukemia, melanoma and cancers of the lung, colon, brain, ovary, breast, prostate and kidney. In a one-dose NCI compound test report, NCI report a number for each cell line, which they call “Growth Percent”, which is its growth relative to the no-compound control, and relative to the time zero number of cells. This reported parameter allows detection of both growth inhibition (values between 0 and 100) and lethality (values less than 0). For example, an NCI “Growth Percent” value of 100 means no growth inhibition. Value of 40 means 60% growth inhibition. Value of 0 means no net growth over the course of the experiment. Value of −40 means 60% lethality. Value of −100 means all cells are dead. I don't present NCI one-dose data in this original format. Instead, if the NCI “Growth Percent” value for a cell is positive, it is manipulated: [100 minus this original NCI-60 “Growth Percent” data point], to yield the percentage “Growth Inhibition”. If the original NCI “Growth Percent” value for a cell is negative, it is made positive to be the percentage of original cancer cells (at time zero) killed: “Percentage Killed” {and in these cases, of course, all growth has been inhibited, so percentage “Growth Inhibition” is then specified to be 100% for this cancer cell line}. In my one-dose figures, “Growth Inhibition” (0-100%) is presented on the x-axis and, if applicable, “Percentage Killed” (0-100%) further along on the x-axis. The latter is applicable when there is not just cancer growth inhibition but a reduction in the number of cancer cells from the start time i.e. when the compound is not merely slowing cancer growth, but is actively reducing the number of cancer cells from the starting number. In cases where there is only growth inhibition, only “Growth inhibition” is presented on the x-axis.
NCI-60 tests are performed at a controlled temperature of 37° C..
To perform the anti-cancer testing reported: BMS-199264 hydrochloride was purchased from Sigma-Aldrich. BTB06584 was purchased from AdooQ Bioscience, Irvine, CA, USA. Compounds 19a (separated into 6a and 6b stereoisomers) and 31 were synthesized by reaction schemes disclosed herein. Almitrine dimesylate was purchased from Ak Scientific, Palo Alto, CA, USA.

[9] = In vivo mouse study of 6a and 6b, rectal temperature and survival at 22° C. room temperature; parameters: species or system Mus Musculus C57BL/6; settings: for effect on rectal temperature (in words): in vivo, iv
Protocol: FIG. 15. In vivo study of compounds 6a and 6b, conducted at 22° C. room temperature. METHODOLOGY: 4 mice were used and in the presented table “Day” refers to the number of days since the 1st drug/vehicle dose on Day 1. Some experimental details: intravenous (IV) administration (tail vein), dosing volume=10 μl/g, solution (not suspension), sterilised (0.22 μm filter) vortexed vehicle=12.5% solutol, 12.5% ethanol, 75% water, IV solutions freshly prepared before injection except on days 22 and 39 when solutions prepared on previous dosing days were used (sub-optimal), Female Mus Musculus C57BL/6 strain, 6-8 weeks old at study start, mice sourced from Shanghai Lingchang Bio-Technology Co. Ltd, mice were observed/quarantined for a few days after arrival and before dosing, ad libitum Co^60 irradiation sterilized dry granule food & reverse osmosis autoclaved water, corn cob bedding, polysulfone individually ventilated cage (IVC, containing up to 5 animals): 325 mm×210 mm×180 mm, 12 hour light/dark cycle, 40-70% humidity, 20-26° C. room temperature, StudyDirector™ software (Studylog Systems, Inc. CA, USA) used to allocate/randomize control/treatment groups, animals marked by ear coding (notch), care and use of animals in accordance with the regulations of the Association for Assessment and Accreditation of Laboratory Animal Care (AAALAC), when recording rectal temperature: care was taken to ensure constant depth of probe insertion across different recordings, time was afforded for rectal probe temperature to equilibrate with rectal temperature, and time was afforded between recordings for probe temperature to reset.

[10] = molecular target: T1, F1F0 ATP hydrolase (Bos taurus, UniProt P00829+P19483); settings: cited from earlier work; for IC50: [5-6], read-out: IC50 reverse mode of ATP synthase
T1 construct: from tissue; host or cells: sub-mitochondrial particles (SMPs)

[11] = molecular target: T2, F1F0 ATP synthesis (Bos taurus, UniProt P00829+P19483); settings: SMP assays, [5-8]; cited from earlier work
T2 construct: are from sub-mitochondrial (SMP) studies in [5-8]; from tissue; host or cells: sub-mitochondrial particles (SMPs)

[12] = tested on: ex vivo rat heart; settings: 10 μM [11]; cited from earlier work
[13] = Human pharmacokinetics of oral almitrine dimesylate; assay type: in vivo; settings: human, plasma; single 200 mg oral dose, humans [121]; read-out: mean cmax plasma concentration
[14] = mice, intraperitoneal injection (IP); cited from earlier work
[15] = cited from earlier work
[16] = tested on: HL-1 cardiac muscle cell line; settings: 3 μM, HL-1 cells, data from [12]; cited from earlier work
[17] = read-out: median cancer growth inhibition

In the case of `CCN1CC(CCN2CCOCC2)C(c2ccccc2)(c2ccccc2)C1=O` (centres unmarked) [Doxapram], the “median % cancer growth inhibition” value [1] is listed as −2.3% and the “mean % cancer growth inhibition” value ([1]; negative = growth promotion) is listed as −3.7%.

In the case of `N.N.[Cl][Pt][Cl]` [cisplatin], the GI50 [2] is listed as 1.4 µM.

In the case of `CN1C(=O)C(Cc2ccc3ccccc3c2)N=C(c2ccc(O)cc2)c2cc(Cl)ccc21` (centres unmarked) [Bz-423], the EC50 [3] is listed as 5.5 µM and the EC50 [4] is listed as 8.9 µM.

In the case of `CCO` [ethanol], the “reduction of body temperature” value [5] is given as 1.6 °C.

In the case of `N#Cc1cccc(C(=O)/N=C(\Nc2ccc(Cl)cc2)N[C@@H](Cn2ccnc2)c2ccc(Cl)cc2Cl)c1` [Compound 6a], the “enantiomeric excess (ee) stability” value [6] is reported as “stable”, the GI50 [7] is reported as 0.666 µM and the inhibition at 10 µM [8] is reported as 57%. The inhibition at 100 µM [8, 17] was greater than 79%, the LD50 ([9]; female, C57BL/6, in vivo, mouse, IV) was greater than 40 mg/kg and the “effect on rectal temperature (in words)” value ([9]; mouse) was “does not”. For the same compound, the EC50 ([10]; SMP studies in [5-8], read-out: EC50 F1F0 ATP hydrolysis / hydrolase) was greater than 100 µM and the IC50 [10] was greater than 100 µM.

For `N#Cc1cccc(C(=O)/N=C(\Nc2ccc(Cl)cc2)N[C@H](Cn2ccnc2)c2ccc(Cl)cc2Cl)c1` [Compound 6b], the “enantiomeric excess (ee) stability” value [6] was “stable”, the GI50 [7] was 0.446 µM and the inhibition at 10 µM [8] was 66%. The inhibition at 100 µM [8, 17] was greater than 79%, the “time to death after IV injection” value ([9]; 20 mg/kg IV) was roughly 210 min and the “survival time after IV injection” value ([9]; 40 mg/kg IV, found dead the next day) was greater than 6 h. For the same compound, the “effect on rectal temperature (in words)” value ([9]; mouse) was “potently reduces rectal temperature” and the IC50 [10] was 0.018 µM.

In the case of `CC1(C)Oc2ccc(S(=O)(=O)N3CCCCC3)cc2[C@@H](N(Cc2ncc[nH]2)c2ccc(Cl)cc2)[C@@H]1O` [BMS-199264], the GI50 [7] is listed as 3.9 µM, the inhibition at 100 µM ([8]; read-out: Mean % cancer growth inhibition) is listed as greater than 100% and the EC50 [11] is listed as 18 µM. The “harm to normal cells (ex vivo rat heart)” value [12] was “doesn't harm; also recorded: does not harm”.

For `C=CCNc1nc(NCC=C)nc(N2CCN(C(c3ccc(F)cc3)c3ccc(F)cc3)CC2)n1.CS(=O)(=O)O` [almitrine dimesylate, 6-[4-[bis(4-fluorophenyl)methyl]piperazin-1-yl]-2-N,4-N-bis(prop-2-enyl)-1,3,5-triazine-2,4-diamine methanesulfonic acid], the Cmax [13] was 600 nM, the “anti-cancer activity (in words)” value [8] was “Anti-cancer activity” and the “anti-cancer activity (in words)” value ([8]; listed as almitrine dismesylate) was “greater anti-cancer activity than carboplatin”. The LD50 [14] was 370 mg/kg, the “plasma [almitrine]” value ([15]; 24 hours after 200 mg oral dose [121]) was roughly 50 ng/mL and the oral bioavailability ([15]; humans [121]) was 70%. The “mean cmax plasma concentration” value ([15]; single 150 mg oral dose, humans [123]) was 379 ng/mL and the “mean cmax plasma concentration” value ([15]; single 200 mg oral dose, humans [121]) was 286 ng/mL.

In the case of `CC[C@H]1/C=C/C=C/C[C@@H](C)[C@H](O)[C@@](C)(O)C(=O)[C@@H](C)[C@H](O)[C@@H](C)C(=O)[C@@H](C)[C@H](O)[C@@H](C)/C=C/C(=O)O[C@@H]2[C@H](C)[C@H](CC1)O[C@@]1(O[C@@H](C[C@@H](C)O)[C@@H](C)CC1=O)[C@H]2C` [Oligomycin B], the “change of O2 consumption” value [16] is listed as −40%.
